Data: paper PMC9860708, “Parent-Metabolite Pharmacokinetic Modeling of Formononetin and Its Active Metabolites in Rats after Oral Administration of Formononetin Formulations” (Pharmaceutics, 2022)
Like-named read-outs stand apart in the source and are kept apart here.

What was measured:
[1] = Pharmacokinetic evaluation after oral administration of FMN solution and formulations (non-compartmental analysis); conditions: 20 mg/kg FMN, all three groups
Experimental: The animals were maintained in the temperature and humidity range of 25 ± 1 °C and 50 ± 5% RH, respectively, over the acclimation period. To minimize the effects of food on pharmacokinetic profile of isoflavones, the animals were fasted overnight with free access to water.
Animals were allocated equally into 3 groups (5 rats per group). […] The blood samples were immediately centrifuged (10,000× g, 10 min, 4 °C) to obtain plasma samples and was stored at −80 °C.
Determination of the four isoflavones and DZN-d4 (internal standard, IS) in samples were conducted using Acquity UPLC system (Waters Corp., Milford, MA, USA) coupled to Xevo TQ-S triple quadrupole mass spectrometry (Waters Corp., USA) with electrospray (ESI) source. The chromatographic separations of the four isoflavones was performed in a Kinetex C18 column (2.1 × 100 mm, 1.7 μm particle size, Phenomenex, Torrance, CA, USA) at 40 ± 0.5 °C. The mobile phase consisted of water (mobile phase A) and acetonitrile (mobile phase B) with gradient elution at a flow rate of 0.2 mL/min. […] The optimized collision energy of FMN, DZN, DHD, EQL and IS were −22, −38, −22, −15 and −38, respectively. Data acquisition and analysis were achieved using Masslynx 4.1 software (Waters Corp., USA).
The samples were extracted by protein precipitation using methanol. 50 μL of rat samples were added with 10 μL of the IS solution (10 μg/mL of DZN-d4 in 50% methanol) to correct the loss of analytes during sample preparation. 100 μL of methanol was added to the mixed sample, vortexed for 1 min and centrifuged at 15,000× g for 5 min. Then, 5 μL of aliquots were injected into the UPLC-MS/MS system. The method validation was performed according to the FDA guideline for industry bioanalytical method validation.
PK parameters such as the maximum plasma concentration (Cmax) and the time to reach Cmax (Tmax) were determined from plasma concentration-time curve. The linear trapezoidal rule was used to calculate area under the curve to the final measured concentration (AUC0-t), then area from Clast to area expolated to infinity was added to AUC0-t to integrate AUC0-∞. […] The PK analysis was performed using WinNonlin® software (version 8.2, Certara™ Company, Princeton, NJ, USA). Then, a PK model was developed for FMN and its metabolites following oral administration of solution or formulations. The model was implemented in the WinNonlin model with NLME engine and estimated using the naïve-pooled and First Order Conditional Estimation-Extended Least Squares (FOCE-ELS) algorithms. […]

[2] = Plasma protein binding assay (ultrafiltration, Centrifree); assay type: in vitro ADME; conditions: male SD rat plasma, n = 3
Experimental: The plasma protein binding of FMN, DZN, DHD and EQL was estimated using Ultra-filtration method using Centrifree® micro-partition system (Amicon Inc., Lexington, MA, USA). The experiment was conducted at concentrations of 50, 150, 500 and 1000 ng/mL (n = 3) for all four compounds in male SD rat plasma. The spiked plasma samples were allowed to equilibrate for at least 15 min before it was put into Centrifree® ultrafiltration tubes. The tubes were centrifuged at 1000× g for 15 min at 37 °C. Then, compound concentrations in the ultrafiltrate buffer (CUF) and plasma in the sample reservoir (Ctotal) were quantitated by the anlytical method described in Section 2.3. The plasma protein binding rate was calculated using the following formula: Plasma protein binding (%)=[…]

human serum albumin = conditions: concentration levels of 3–15 μM DZN, ref Song et al. 23; cited from earlier work
[3] = design: method as in PMID 21266188; conditions: female rat plasma, cited from earlier work
[4] = cited from earlier work
[5] = design: method as in PMID 12714433; conditions: humans; cited from earlier work
[6] = oral 20 mg/kg FMN dissolved in 0.5% CMC-Na, male Sprague Dawley rats

Row | Structure (SMILES) | Detection of analyte in rat plasma after oral administration of FMN [1] | fraction unbound at 15 min, 50 ng/mL [2] | fraction unbound at 15 min, 150 ng/mL [2] | fraction unbound at 15 min, 500 ng/mL [2] | fraction unbound at 15 min, 1000 ng/mL [2] | unbound DZN (human serum albumin) | Plasma protein binding ([3]; 50 ng/mL) | Plasma protein binding ([3]; 150 ng/mL) | Time at which the peak plasma concentration was reached ([4]; 2–50 mg/kg FMN orally administered, rats) | oral bioavailability (F) ([4]; FMN solution dissolved in 0.5% CMC-Na, rats) | clearance of FMN ([4]; intravenous administration, rats) | AUCinf [4, 6] | Cmax [4, 6] | FMN excreted intact [5]
1 | O=C1c2ccc(O)cc2OCC1c1ccc(O)cc1 (stereo not shown) [DHD, Dihydrodaidzein] | not quantitated | 0.118 | 0.126 | 0.12 | 0.132 | – | – | – | – | – | – | – | – | –
2 | Oc1ccc([C@H]2COc3cc(O)ccc3C2)cc1 [EQL, Equol] | not quantitated | – | 0.0131 | 0.0138 | 0.022 | – | – | – | – | – | – | – | – | –
3 | O=c1c(-c2ccc(O)cc2)coc2cc(O)ccc12 [DZN, Daidzein] | detected | 0.0456 | 0.0342 | 0.0569 | 0.0531 | 0.889 to 6.398 µM | – | – | – | – | – | – | – | –
4 | COc1ccc(-c2coc3cc(O)ccc3c2=O)cc1 [FMN, Formononetin] | detected | 0.116 | 0.0664 | 0.145 | 0.082 | – | 93.61 ± 0.44% | 96.14 ± 0.15% | 0.5 to 1 h | 21.8% | 83 mL/min/kg | 0.7577 ± 0.0482 µM·h | 302 ± 35.9 nM | about 25%
